Data published in patent publication US20210254272A1, “TEXTILES HAVING ANTIMICROBIAL PROPERTIES” (Livinguard AG, priority 2015, published 2021).

Assay: Leaching test: 100 g fabric soaked in 10 liters stagnant distilled water, 3 days (72 hours)
Format: physicochemical
Method: (§1) The test procedure for leaching was as follows: 100 g (grams) of fabric as well as control fabrics were soaked in 10 liters of stagnant distilled water in a closed wide mouth jar. After 3 days (72 hours), the water samples were tested for leached substances as per standard analytical methods.
as §1, with “methods. A weight of 100 g fabric was chosen because in the preferred embodiment of the water filter as described further below, each filter comprises a strip of fabric with 210 g/m^2, 3 meters long and 0.16 meters wide, which corresponds to 100 g of fabric.” for “methods.”

Q: What does the source list for polyglucosamine [chitosan]?
A: Leaching of active ingredients (in ppm) (0.2% each in mixture (o.w.f), exhaust 80° C., 60 min, curing 180° C., 2 min, unwashed): 9 ppm; Leaching of active ingredients (in ppm) (0.5% each in mixture (o.w.f), exhaust 80° C., 60 min, curing 180° C., 2 min, unwashed): 12 ppm; Leaching of active ingredients (in ppm) (1.0% each in mixture (o.w.f), exhaust 80° C., 60 min, curing 180° C., 2 min, unwashed): 16 ppm; Leaching of active ingredients (in ppm) (exhaust 60° C., solution dosage 1% o.w.f, process time 60 min): 21 ppm; Leaching of active ingredients (in ppm) (exhaust 60° C., solution dosage 1% o.w.f, process time 90 min): 13 ppm; Leaching of active ingredients (in ppm) (exhaust 60° C., solution dosage 1% o.w.f, process time 120 min): 14 ppm; Leaching of active ingredients (in ppm) (exhaust 60° C., solution dosage 1% o.w.f, process time 180 min): 12 ppm; Leaching of active ingredients (in ppm) (exhaust 60° C., solution dosage 1% o.w.f, process time 240 min): 13 ppm; Leaching of active ingredients (in ppm) (exhaust 80° C., 1% o.w.f, 60 min, curing 170° C., curing dwell time 0.5 min): 28 ppm; Leaching of active ingredients (in ppm) (exhaust 80° C., 1% o.w.f, 60 min, curing 170° C., curing dwell time 1.0 min): 26 ppm; Leaching of active ingredients (in ppm) (exhaust 80° C., 1% o.w.f, 60 min, curing 170° C., curing dwell time 1.5 min): 20 ppm; Leaching of active ingredients (in ppm) (exhaust 80° C., 1% o.w.f, 60 min, curing 170° C., curing dwell time 2.0 min): 13 ppm; Leaching of active ingredients (in ppm) (exhaust 80° C., 1% o.w.f, 60 min, curing 170° C., curing dwell time 2.5 min): 18 ppm; Leaching of active ingredients (in ppm) (exhaust 80° C., 1% o.w.f, 60 min, curing 170° C., curing dwell time 3.0 min): 18 ppm; Leaching of active ingredients (in ppm) (exhaust 80° C., 1% o.w.f, 60 min, curing 180° C., curing dwell time 0.5 min): 21 ppm; Leaching of active ingredients (in ppm) (exhaust 80° C., 1% o.w.f, 60 min, curing 180° C., curing dwell time 1.0 min): 13 ppm; Leaching of active ingredients (in ppm) (exhaust 80° C., 1% o.w.f, 60 min, curing 180° C., curing dwell time 1.5 min): 14 ppm; Leaching of active ingredients (in ppm) (exhaust 80° C., 1% o.w.f, 60 min, curing 180° C., curing dwell time 2.0 min): 3 ppm; Leaching of active ingredients (in ppm) (exhaust 80° C., 1% o.w.f, 60 min, curing 180° C., curing dwell time 2.5 min): 12 ppm; Leaching of active ingredients (in ppm) (exhaust 80° C., 1% o.w.f, 60 min, curing 180° C., curing dwell time 3.0 min): 12 ppm; Leaching of active ingredients (in ppm) (exhaust 80° C., 1% o.w.f, 60 min, curing dwell time at 190° C. (title): 0.5 min): 20 ppm; Leaching of active ingredients (in ppm) (exhaust 80° C., 1% o.w.f, 60 min, curing dwell time at 190° C. (title): 1.0 min): 13 ppm; Leaching of active ingredients (in ppm) (exhaust 80° C., 1% o.w.f, 60 min, curing dwell time at 190° C. (title): 1.5 min): 12 ppm; Leaching of active ingredients (in ppm) (exhaust 80° C., 1% o.w.f, 60 min, curing dwell time at 190° C. (title): 2.0 min): 11 ppm; Leaching of active ingredients (in ppm) (exhaust 80° C., 1% o.w.f, 60 min, curing dwell time at 190° C. (title): 2.5 min): 25 ppm; Leaching of active ingredients (in ppm) (exhaust 80° C., 1% o.w.f, 60 min, curing dwell time at 190° C. (title): 3.0 min): 35 ppm; Leaching of active ingredients (in ppm) (exhaust 80° C., 60 min, dosage 1% o.w.f (test up to 5% o.w.f)): 2 ppm; Leaching of active ingredients (in ppm) (exhaust 80° C., 60 min, dosage 2% o.w.f): 17 ppm; Leaching of active ingredients (in ppm) (exhaust 80° C., 60 min, dosage 3% o.w.f): 41 ppm; Leaching of active ingredients (in ppm) (exhaust 80° C., 60 min, dosage 4% o.w.f): 42 ppm; Leaching of active ingredients (in ppm) (exhaust 80° C., 60 min, dosage 5% o.w.f): 72 ppm; Leaching of active ingredients (in ppm) (exhaust 80 ° C., solution dosage 1% o.w.f, process time 10 min): 37 ppm; Leaching of active ingredients (in ppm) (exhaust 80 ° C., solution dosage 1% o.w.f, process time 20 min): 25 ppm; Leaching of active ingredients (in ppm) (exhaust 80 ° C., solution dosage 1% o.w.f, process time 30 min): 21 ppm; Leaching of active ingredients (in ppm) (exhaust 80 ° C., solution dosage 1% o.w.f, process time 40 min): 16 ppm; Leaching of active ingredients (in ppm) (exhaust 80 ° C., solution dosage 1% o.w.f, process time 50 min): 12 ppm; Leaching of active ingredients (in ppm) (exhaust 80 ° C., solution dosage 1% o.w.f, process time 55 min): 5 ppm; Leaching of active ingredients (in ppm) (exhaust 80 ° C., solution dosage 1% o.w.f, process time 60 min): 3 ppm; Leaching of active ingredients (in ppm) (exhaust 80 ° C., solution dosage 1% o.w.f, process time 70 min): 2 ppm; Leaching of active ingredients (in ppm) (exhaust 80 ° C., solution dosage 1% o.w.f, process time 80 min): 5 ppm; Leaching of active ingredients (in ppm) (exhaust 80 ° C., solution dosage 1% o.w.f, process time 90 min): 8 ppm; limit on the quantity of the agent that can be adhered to the textile in a non-leaching or substantially non-leaching manner (from Experimental examples I.1 and I.4): about 0.2 % o.w.f.; Leaching of active ingredient (in ppm) (solution dosage 0.10% o.w.f, exhaust temperature 60° C., process time 60 min): 0 ppm; Leaching of active ingredient (in ppm) (solution dosage 0.10% o.w.f, exhaust temperature 65° C., process time 60 min): 0 ppm; Leaching of active ingredient (in ppm) (solution dosage 0.10% o.w.f, exhaust temperature 70° C., process time 60 min): 0 ppm; Leaching of active ingredient (in ppm) (solution dosage 0.10% o.w.f, exhaust temperature 75° C., process time 60 min): 0 ppm; Leaching of active ingredient (in ppm) (solution dosage 0.10% o.w.f, exhaust temperature 80° C., process time 60 min): 0 ppm; Leaching of active ingredient (in ppm) (solution dosage 0.10% o.w.f, exhaust temperature 85° C., process time 60 min): 1 ppm; Leaching of active ingredient (in ppm) (solution dosage 0.10% o.w.f, exhaust temperature 90° C., process time 60 min): 2 ppm; Leaching of active ingredient (in ppm) (solution dosage 0.10% o.w.f, exhaust temperature 95° C., process time 60 min): 2 ppm; Leaching of active ingredient (in ppm) (solution dosage 0.20% o.w.f, exhaust temperature 60° C., process time 60 min): 0 ppm; Leaching of active ingredient (in ppm) (solution dosage 0.20% o.w.f, exhaust temperature 65° C., process time 60 min): 0 ppm; Leaching of active ingredient (in ppm) (solution dosage 0.20% o.w.f, exhaust temperature 70° C., process time 60 min): 0 ppm; Leaching of active ingredient (in ppm) (solution dosage 0.20% o.w.f, exhaust temperature 75° C., process time 60 min): 0 ppm; Leaching of active ingredient (in ppm) (solution dosage 0.20% o.w.f, exhaust temperature 80° C., process time 60 min): 0 ppm; Leaching of active ingredient (in ppm) (solution dosage 0.20% o.w.f, exhaust temperature 85° C., process time 60 min): 2 ppm; Leaching of active ingredient (in ppm) (solution dosage 0.20% o.w.f, exhaust temperature 90° C., process time 60 min): 3 ppm; Leaching of active ingredient (in ppm) (solution dosage 0.20% o.w.f, exhaust temperature 95° C., process time 60 min): 4 ppm; Leaching of active ingredient (in ppm) (solution dosage 0.50% o.w.f, exhaust temperature 60° C., process time 60 min): 1 ppm; Leaching of active ingredient (in ppm) (solution dosage 0.50% o.w.f, exhaust temperature 65° C., process time 60 min): 1 ppm; Leaching of active ingredient (in ppm) (solution dosage 0.50% o.w.f, exhaust temperature 70° C., process time 60 min): 1 ppm; Leaching of active ingredient (in ppm) (solution dosage 0.50% o.w.f, exhaust temperature 75° C., process time 60 min): 1 ppm; Leaching of active ingredient (in ppm) (solution dosage 0.50% o.w.f, exhaust temperature 80° C., process time 60 min): 1 ppm; Leaching of active ingredient (in ppm) (solution dosage 0.50% o.w.f, exhaust temperature 85° C., process time 60 min): 4 ppm; Leaching of active ingredient (in ppm) (solution dosage 0.50% o.w.f, exhaust temperature 90° C., process time 60 min): 5 ppm; Leaching of active ingredient (in ppm) (solution dosage 0.50% o.w.f, exhaust temperature 95° C., process time 60 min): 7 ppm; Leaching of active ingredient (in ppm) (solution dosage 0.80% o.w.f, exhaust temperature 60° C., process time 60 min): 2 ppm; Leaching of active ingredient (in ppm) (solution dosage 0.80% o.w.f, exhaust temperature 65° C., process time 60 min): 2 ppm; Leaching of active ingredient (in ppm) (solution dosage 0.80% o.w.f, exhaust temperature 70° C., process time 60 min): 2 ppm; Leaching of active ingredient (in ppm) (solution dosage 0.80% o.w.f, exhaust temperature 75° C., process time 60 min): 3 ppm; Leaching of active ingredient (in ppm) (solution dosage 0.80% o.w.f, exhaust temperature 80° C., process time 60 min): 1 ppm; Leaching of active ingredient (in ppm) (solution dosage 0.80% o.w.f, exhaust temperature 85° C., process time 60 min): 7 ppm; Leaching of active ingredient (in ppm) (solution dosage 0.80% o.w.f, exhaust temperature 90° C., process time 60 min): 8 ppm; Leaching of active ingredient (in ppm) (solution dosage 0.80% o.w.f, exhaust temperature 95° C., process time 60 min): 9 ppm; Leaching of active ingredient (in ppm) (solution dosage 1.00% o.w.f, exhaust temperature 60° C., process time 60 min): 6 ppm; Leaching of active ingredient (in ppm) (solution dosage 1.00% o.w.f, exhaust temperature 65° C., process time 60 min): 6 ppm; Leaching of active ingredient (in ppm) (solution dosage 1.00% o.w.f, exhaust temperature 70° C., process time 60 min): 4 ppm; Leaching of active ingredient (in ppm) (solution dosage 1.00% o.w.f, exhaust temperature 75° C., process time 60 min): 3 ppm; Leaching of active ingredient (in ppm) (solution dosage 1.00% o.w.f, exhaust temperature 80° C., process time 60 min): 1.5 ppm; Leaching of active ingredient (in ppm) (solution dosage 1.00% o.w.f, exhaust temperature 85° C., process time 60 min): 9 ppm; Leaching of active ingredient (in ppm) (solution dosage 1.00% o.w.f, exhaust temperature 90° C., process time 60 min): 11 ppm; Leaching of active ingredient (in ppm) (solution dosage 1.00% o.w.f, exhaust temperature 95° C., process time 60 min): 12 ppm
